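Each compound was tested at five concentrations against cells in 96-well plates for 48 hours. GI50 is the concentration that inhibits growth by half. Definition used: TGI = concentration required for complete inhibition of growth.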
Experiments:
Assay in all cases: NCI-60 cell line screen, 48 h
HOP-92 NSCLC = tested on: HOP-92 NSCLC
NCI-H23 lung = tested on: NCI-H23 lung
NCI-H522 lung = tested on: NCI-H522 lung
SF-268 CNS = tested on: SF-268 CNS
SF-539 CNS = tested on: SF-539 CNS
SK-MEL-2 melanoma = tested on: SK-MEL-2 melanoma
SNB-19 CNS = tested on: SNB-19 CNS
TK-10 renal = tested on: TK-10 renal
UACC-257 melanoma = tested on: UACC-257 melanoma
MDA-MB-435 = tested on: MDA-MB-435

Structure (SMILES) | TGI (HOP-92 NSCLC) [µM] | TGI (NCI-H23 lung) [µM] | TGI (NCI-H522 lung) [µM] | TGI (SF-268 CNS) [µM] | TGI (SF-539 CNS) [µM] | TGI (SK-MEL-2 melanoma) [µM] | TGI (SNB-19 CNS) [µM] | TGI (TK-10 renal) [µM] | TGI (UACC-257 melanoma) [µM] | GI50 (NCI-H23 lung) [µM] | GI50 (NCI-H522 lung) [µM] | GI50 (SF-268 CNS) [µM] | GI50 (SF-539 CNS) [µM] | GI50 (SK-MEL-2 melanoma) [µM] | GI50 (SNB-19 CNS) [µM] | GI50 (UACC-257 melanoma) [µM] | TGI (MDA-MB-435) [µM]
Cc1c2ccncc2c(C)c2c1[nH]c1ccc(O)c(OCC(F)(F)F)c12 | 16.5 | 19.4 | 15.9 | 24.1 | 16.3 | 22.9 | 9.17 | 25 | 21.4 |  |  |  |  |  |  |  | 
COc1ccc(-c2c(C3=NCCCN3)nnn2-c2ccc([N+](=O)[O-])cc2)cc1 | > 100 | > 100 | > 100 | > 100 | > 100 | > 100 | > 100 | > 100 | > 100 |  |  |  |  |  |  |  | 
N#Cc1c(-c2ccco2)cc(-c2ccccc2)[nH]c1=O | > 100 | > 100 | > 100 | > 100 | > 100 |  | > 100 | > 100 | > 100 |  |  |  |  |  |  |  | 
C=C1C(=O)C23C(O)C1CC[C@H]2C12CCCC(C)(COC(C)=O)[C@H]1[C@H](O)[C@]3(O)OC2 (stereo not given in full) | 3.02 | 3.53 | 0.902 | 6.95 | 3.07 | 3.49 | 7.03 | 3.62 | 3.67 |  |  |  |  |  |  |  | 
CSc1ccc(N(C)c2nc(C)nc3c2CCC3)cc1 |  | 33 | < 0.01 | 60.4 | < 0.01 | 38.8 | > 100 |  | 48.4 | < 0.01 | < 0.01 | < 0.01 | < 0.01 | < 0.01 | < 0.01 | 11.6 | 
Cn1c(=O)nc2n(-c3ccc(Cl)c(C(F)(F)F)c3)c3ccccc3nc-2c1=O | > 100 | > 83.2 | 73 | > 100 | > 79.9 | > 100 | 63.1 | > 100 | 36.8 |  |  |  |  |  |  |  | 
COc1c(O)c(OC)c2oc(-c3ccc(O)cc3)c(OC)c(=O)c2c1O |  | > 100 | 70.9 | 34.1 | > 100 | > 100 | > 100 | > 100 | > 100 |  |  |  |  |  |  |  | > 100
COC(=O)C1C(=O)N(CCc2c[nH]c3ccccc23)C[C@@H]2CCC(=O)C[C@H]12 (stereo not given in full) | > 100 | > 100 | > 100 | > 100 | > 100 | > 100 | > 100 | > 100 | > 100 |  |  |  |  |  |  |  | 
COc1ccc(C2Oc3c(c(O)cc4c3[C@H](c3ccc(O)cc3O)[C@H](O)C(c3ccc(O)c(O)c3)O4)C[C@@H]2O)cc1O (stereo not given in full) | > 100 | > 100 | > 100 | > 100 | > 100 | > 100 | > 100 | > 100 | > 100 |  |  |  |  |  |  |  | 
C[C@]12C/C(=C/O)C(=O)C(O)=C1CC[C@@H]1C2CC[C@@]2(C)C1CC[C@@H]2O (stereo not given in full) | 46.4 | 40.3 | 32 | 54.1 | 34.2 | 55.4 | 36.1 | > 100 | 62 |  |  |  |  |  |  |  | 
Cc1ccccc1/C=C/C(=O)c1ccccc1 | 37.6 | 32.2 | 46.8 | 30 | 28.7 | > 10 | 30.3 |  | 42.4 |  |  |  |  |  |  |  | 
CCCCCCCCCCCC1CC(=O)NCCCN(C)CCCCN(C)CCCN1C (stereo not given) | 2.68 | 3.12 | 3.27 | 3.3 | 3.17 | 3.16 | 3.1 | 3.12 | 3.06 |  |  |  |  |  |  |  | 
C=C1C2Oc3ccccc3C1N(c1ccccc1)O2 (stereo not given) |  |  | 80.8 | > 100 | 57.3 | > 100 | > 100 | > 100 | > 100 |  |  |  |  |  |  |  | 
COc1ccccc1NC(=O)/C(=C/c1ccccc1)C(C)=O | > 100 | 65.7 | 58.2 | > 100 | 62 | > 100 | > 100 | > 100 | > 100 |  |  |  |  |  |  |  | 
CC(C)(C)OC(=O)NC1CCCC1=O (stereo not given) | > 100 | > 100 | > 100 | > 100 | > 100 | > 100 | > 100 | > 100 | > 100 |  |  |  |  |  |  |  | 
Cc1cccc(C)c1N1C(=O)C(=O)C(c2nc3ccccc3s2)C(=Nc2cccc3c(=O)[nH][nH]c(=O)c23)C1=O (stereo not given) | > 100 | > 100 |  | > 100 | > 100 | > 100 | > 100 | > 100 | > 100 |  |  |  |  |  |  |  | 
O=S1CSSC1 | 57.4 | 76.7 | 25.9 | 58.4 | 40.1 | 33.9 | > 100 | > 100 | 36.4 |  |  |  |  |  |  |  | 
c1ccc2[nH]c(CNc3ccc(C4C[Se]N=N4)cc3)nc2c1 (stereo not given) | > 100 | > 100 | > 100 | > 100 | > 100 | > 100 | > 100 | > 100 |  |  |  |  |  |  |  |  | 
Cc1cccc(N(CC(=O)O)S(=O)(=O)c2ccccc2)c1 | > 100 | > 100 | > 100 | > 100 | > 100 | > 100 | > 100 | > 100 | > 100 |  |  |  |  |  |  |  | 
C=CCNC(=O)N(CCC)CCCC(NC(C)=O)C(=O)NCc1ccccc1 (stereo not given) | > 100 | > 100 | > 100 | > 100 | > 100 | > 100 | > 100 | > 100 | > 100 |  |  |  |  |  |  |  | 
Cc1nc(-c2cccnc2)sc1C(=O)/C=C/c1cccc([N+](=O)[O-])c1 | > 100 | > 100 | > 100 | > 100 | > 100 | > 100 |  | > 100 | > 100 |  |  |  |  |  |  |  | 
CC(C)[O-].CC(C)[O-].O=c1cccccc1[O-].O=c1cccccc1[O-].[Ti+4] | 90.8 | > 100 | 62.8 | > 100 | > 100 | > 100 | > 100 | > 100 | > 100 |  |  |  | 29.3 |  |  |  | 
O=C1C2=C(CCC2)Nc2cccc3ncn1c23 |  | > 100 | > 100 | > 100 | > 100 | > 100 | > 100 | 75.7 | > 100 |  |  |  |  |  |  |  | 
